Experimental data taken from US6455546B2, “Method for promoting ovulation, parturition, and lactation in mammals” (Clemson University, priority 1996, dated 2002).
Several values for one entry are separate records, joined by “and”; a condition that tells them apart may be missing. Equal values may be shown once. Entries after “also recorded” stand apart in the source; their conditions may differ.

Tests used:
quarter horse mares = assay: Daily feed intake of mares; assay type: in vivo
Source text: Ten quarter horse mares were housed in individual pens and fed a standard feed concentrate weighing 0.5% of each mares' initial body weight at approximately 8:00 A.M. each day during the study. In addition, hay was fed to the mare ad libitum each day. During the night, the mares were placed in a dry lot having no access to food.

mares = assay: Stimulation of follicular growth and ovulation in mares out of season
agalactic mares = assay: Preparation for parturition, udder development and lactation in agalactic mares; assay type: in vivo;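 also: treated mares were free of fescue toxicosis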
animals = animals exposed to other D2 receptor antagonists; cited from earlier work
[1] = individual mares, domperidone .55 mg/kg orally daily in molasses, January and February
[2] = individual agalactic mares, 1.1 mg/kg per day orally, 1.1 mg/kg/day

O=c1[nH]c2ccccc2n1CCCN1CCC(n2c(=O)[nH]c3cc(Cl)ccc32)CC1 [domperidone]
Daily hay consumption after treatment began (quarter horse mares; each of the ten mares, 1.1 mg/kg orally daily): increased
Avg. Hay Consumption After Treatment (quarter horse mares; individual mares, 1.1 mg/kg orally daily for two weeks, hay ad libitum, 1.1 mg/kg): 13.0 lbs and 12.2 lbs and 14.1 lbs (2×) and 13.2 lbs and 14.2 lbs and 12.3 lbs and 13.5 lbs and 15.0 lbs and 12.1 lbs
Mares treated that ovulated (mares; 0.55 mg/kg orally daily, only two of nine control mares ovulated): nine of the ten
Date of Ovulation (mares; [1]): Feb. 9; also recorded: Feb. 6; also recorded: Feb. 12; also recorded: Feb. 8; also recorded: Feb. 15; also recorded: Feb. 5; also recorded: Feb. 7; also recorded: Feb. 13; also recorded: d/n ovulate; also recorded: Feb. 10
No. of Days of Treatment Before Ovulation (mares; [1]): 18 Days (2×) and 21 Days and 17 Days and 24 Days and 14 Days and 16 Days and 22 Days and d/n ovulate and 19 Days
Neurological side effects (mares; mares, 0.55 mg/kg orally daily, during the study): No neurological side effects were observed
Milk production (agalactic mares; horses, orally about 0.2 mg/kg to about 3.3 mg/kg of body weight): stimulated
Did Mare Have A Live Foal? (agalactic mares; individual agalactic mares, 1.1 mg/kg per day orally): Yes
Days Before (−) or After Expected Foaling that Mare Foaled (agalactic mares; [2]): −1 Days and +8 Days and +15 Days and +14 Days and 0 Days and −3 Days (2×) and +3 Days and −2 Days and +12 Days
Mare's Udder Development After Treatment Began (agalactic mares; [2]): Increased Weekly; also recorded: Developed Adequately; also recorded: Very Slight; also recorded: Gradual Development; also recorded: Normal Development; also recorded: No Response; also recorded: Immediate; also recorded: Dripping Milk 5th Day
Was Mare Lactating Normally After Foaling? (agalactic mares; [2]): Yes (11×) and No. but drug
Adverse side effects (agalactic mares; subcutaneous, amounts greater than 1.32 mg/kg): without any adverse side effects

CCN(CC)CCNC(=O)c1cc(Cl)c(N)cc1OC [metoclopramide]
Neuroleptic side effects (animals): neuroleptic side effects have been observed

CCN1CCCC1CNC(=O)c1cc(S(N)(=O)=O)ccc1OC (centres unmarked) [sulpiride]
Neuroleptic side effects (animals): neuroleptic side effects have been observed
